The source of these data is paper PMC7788351 (The Journal of Pharmacology and Experimental Therapeutics, 2021).

Counter-ions that a name gives are not always drawn.

Series [1] has as its system humans. Particulars: ref Chait et al., 1985; cited from earlier work.
For series [2], the target named is T1, 5-HT1A (Homo sapiens, UniProt P08908).
T1 sequence (P08908 1-422): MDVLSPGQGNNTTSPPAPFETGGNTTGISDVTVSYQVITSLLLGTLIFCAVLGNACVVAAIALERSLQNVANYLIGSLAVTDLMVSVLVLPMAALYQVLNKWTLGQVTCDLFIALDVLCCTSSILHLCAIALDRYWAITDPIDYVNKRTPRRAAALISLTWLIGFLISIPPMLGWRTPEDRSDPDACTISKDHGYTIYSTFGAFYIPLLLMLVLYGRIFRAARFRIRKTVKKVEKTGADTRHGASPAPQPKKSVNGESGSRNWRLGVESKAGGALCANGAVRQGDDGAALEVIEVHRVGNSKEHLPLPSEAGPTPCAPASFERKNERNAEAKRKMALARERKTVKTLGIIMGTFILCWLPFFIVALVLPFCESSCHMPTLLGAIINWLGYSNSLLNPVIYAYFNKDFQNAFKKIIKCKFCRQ
Particulars: ref Schindler et al., 2019; cited from earlier work.

The subject of series [3] is humans. Particulars: ref Brauer and de Wit, 1996, Kelly et al., 2006, Harvanko et al., 2016; cited from earlier work.
Series [4] has as its target T2, α2A (Homo sapiens, UniProt P08913).
T2 sequence (P08913 1-465): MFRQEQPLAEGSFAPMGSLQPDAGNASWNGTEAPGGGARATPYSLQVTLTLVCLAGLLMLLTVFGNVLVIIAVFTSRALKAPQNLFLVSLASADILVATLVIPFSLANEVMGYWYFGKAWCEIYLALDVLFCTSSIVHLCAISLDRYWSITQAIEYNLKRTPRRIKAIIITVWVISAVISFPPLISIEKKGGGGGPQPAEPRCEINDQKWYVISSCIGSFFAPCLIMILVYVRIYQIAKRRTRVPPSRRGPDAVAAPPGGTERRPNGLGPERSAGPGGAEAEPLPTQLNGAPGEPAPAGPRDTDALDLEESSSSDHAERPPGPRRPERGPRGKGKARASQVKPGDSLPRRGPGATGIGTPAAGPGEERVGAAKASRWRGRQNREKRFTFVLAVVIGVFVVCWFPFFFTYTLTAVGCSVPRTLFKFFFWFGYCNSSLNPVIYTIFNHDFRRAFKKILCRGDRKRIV
To be noted: ref Schindler et al., 2019; cited from earlier work.

Series [5] addresses 5-HT2B (Homo sapiens, UniProt P41595). To be noted: ref Schindler et al., 2019; cited from earlier work.
Series [6] deals with T3, α2C (Homo sapiens, UniProt P18825).
T3 sequence (P18825 1-462): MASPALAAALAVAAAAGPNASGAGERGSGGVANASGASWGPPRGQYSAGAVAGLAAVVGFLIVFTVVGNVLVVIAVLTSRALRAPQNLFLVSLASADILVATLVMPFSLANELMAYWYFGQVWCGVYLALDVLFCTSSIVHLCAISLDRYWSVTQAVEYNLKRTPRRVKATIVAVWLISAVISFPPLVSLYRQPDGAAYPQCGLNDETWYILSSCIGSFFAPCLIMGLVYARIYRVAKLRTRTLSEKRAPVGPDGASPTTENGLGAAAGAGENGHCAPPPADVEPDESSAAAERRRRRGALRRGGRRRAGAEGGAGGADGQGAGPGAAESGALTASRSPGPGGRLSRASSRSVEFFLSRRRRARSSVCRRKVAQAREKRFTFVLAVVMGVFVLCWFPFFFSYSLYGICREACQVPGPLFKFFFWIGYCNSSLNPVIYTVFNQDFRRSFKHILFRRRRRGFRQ
To be noted: ref Schindler et al., 2019; cited from earlier work.

Series [7] concerns male Sprague-Dawley rats. Nature of the series: In vivo biotelemetry. To be noted: s.c., amphetamine 0.1–3 mg/kg, PEA analogs 1–10 mg/kg.
Series [8] deals with rats. Particulars: ref Schindler et al., 2019, cited from earlier work.

Sequence of 5-HT2B (P41595 whole entry): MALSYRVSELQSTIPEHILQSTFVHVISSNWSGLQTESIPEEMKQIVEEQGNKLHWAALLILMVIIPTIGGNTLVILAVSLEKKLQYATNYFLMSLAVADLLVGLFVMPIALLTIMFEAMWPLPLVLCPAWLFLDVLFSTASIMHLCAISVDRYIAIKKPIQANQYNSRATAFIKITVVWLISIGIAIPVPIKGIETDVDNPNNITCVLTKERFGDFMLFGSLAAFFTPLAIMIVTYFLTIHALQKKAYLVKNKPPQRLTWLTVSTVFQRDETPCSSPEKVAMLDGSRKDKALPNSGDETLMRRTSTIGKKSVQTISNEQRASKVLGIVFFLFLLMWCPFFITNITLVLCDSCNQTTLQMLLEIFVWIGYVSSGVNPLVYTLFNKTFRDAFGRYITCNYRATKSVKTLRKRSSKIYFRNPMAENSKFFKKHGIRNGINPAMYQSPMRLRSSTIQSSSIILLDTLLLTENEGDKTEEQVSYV

On to `C[C@H](N)Cc1ccccc1` [Amphetamine, (S)-amphetamine sulfate], for which the “threshold oral dose that can be discriminated” value in series [1] was 5 mg. Besides, the Ki was 2.63 µM in series [2], 0.42 µM in series [4], 0.971 µM in series [5] and 0.171 µM in series [6]. The “lowest oral doses that increase BP and HR” value in series [3] was 7.5 to 10 mg. Moreover, in series [7], the “effect on core body temperature” value is “did not significantly affect body temperature”.
Turning to `CC(CN)c1ccccc1` (stereo not drawn) [BMPEA, β-methylphenethylamine], the “effect on HR or activity” value in series [8] (at the doses tested) was “did not increase HR or activity”. Besides, in series [8], the “reduction of potency to increase BP compared with amphetamine” value is “about 30 fold”.

The Ki is the dissociation constant of the complex between target and ligand, obtained from inhibition or displacement.
